Data from patent US9549932B2, “2-(morpholin-4-yl)-1,7-naphthyridines” (BAYER PHARMA AKTIENGESELLSCHAFT, priority 2014, dated 2017).

molecular target: full-length human ATR protein (Homo sapiens (Human), UniProt Q13535); test: Binding assay ATR (TR-FRET tracer displacement); settings: tracer A, TR-FRET; read-out: ATR binding (tracer A) IC50
Method in brief: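 Full-length human GST-ATR co-purified with ATRIP, pre-complexed 30 min at 22 °C with anti-GST-Tb antibody, then pre-bound with compound 10 min. Tracer A or B added (2 µl of 100 nM solution), 30 min at 22 °C.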

Sequence of full-length human ATR protein (Q13535 other isoform, or with tags, fused parts or gaps): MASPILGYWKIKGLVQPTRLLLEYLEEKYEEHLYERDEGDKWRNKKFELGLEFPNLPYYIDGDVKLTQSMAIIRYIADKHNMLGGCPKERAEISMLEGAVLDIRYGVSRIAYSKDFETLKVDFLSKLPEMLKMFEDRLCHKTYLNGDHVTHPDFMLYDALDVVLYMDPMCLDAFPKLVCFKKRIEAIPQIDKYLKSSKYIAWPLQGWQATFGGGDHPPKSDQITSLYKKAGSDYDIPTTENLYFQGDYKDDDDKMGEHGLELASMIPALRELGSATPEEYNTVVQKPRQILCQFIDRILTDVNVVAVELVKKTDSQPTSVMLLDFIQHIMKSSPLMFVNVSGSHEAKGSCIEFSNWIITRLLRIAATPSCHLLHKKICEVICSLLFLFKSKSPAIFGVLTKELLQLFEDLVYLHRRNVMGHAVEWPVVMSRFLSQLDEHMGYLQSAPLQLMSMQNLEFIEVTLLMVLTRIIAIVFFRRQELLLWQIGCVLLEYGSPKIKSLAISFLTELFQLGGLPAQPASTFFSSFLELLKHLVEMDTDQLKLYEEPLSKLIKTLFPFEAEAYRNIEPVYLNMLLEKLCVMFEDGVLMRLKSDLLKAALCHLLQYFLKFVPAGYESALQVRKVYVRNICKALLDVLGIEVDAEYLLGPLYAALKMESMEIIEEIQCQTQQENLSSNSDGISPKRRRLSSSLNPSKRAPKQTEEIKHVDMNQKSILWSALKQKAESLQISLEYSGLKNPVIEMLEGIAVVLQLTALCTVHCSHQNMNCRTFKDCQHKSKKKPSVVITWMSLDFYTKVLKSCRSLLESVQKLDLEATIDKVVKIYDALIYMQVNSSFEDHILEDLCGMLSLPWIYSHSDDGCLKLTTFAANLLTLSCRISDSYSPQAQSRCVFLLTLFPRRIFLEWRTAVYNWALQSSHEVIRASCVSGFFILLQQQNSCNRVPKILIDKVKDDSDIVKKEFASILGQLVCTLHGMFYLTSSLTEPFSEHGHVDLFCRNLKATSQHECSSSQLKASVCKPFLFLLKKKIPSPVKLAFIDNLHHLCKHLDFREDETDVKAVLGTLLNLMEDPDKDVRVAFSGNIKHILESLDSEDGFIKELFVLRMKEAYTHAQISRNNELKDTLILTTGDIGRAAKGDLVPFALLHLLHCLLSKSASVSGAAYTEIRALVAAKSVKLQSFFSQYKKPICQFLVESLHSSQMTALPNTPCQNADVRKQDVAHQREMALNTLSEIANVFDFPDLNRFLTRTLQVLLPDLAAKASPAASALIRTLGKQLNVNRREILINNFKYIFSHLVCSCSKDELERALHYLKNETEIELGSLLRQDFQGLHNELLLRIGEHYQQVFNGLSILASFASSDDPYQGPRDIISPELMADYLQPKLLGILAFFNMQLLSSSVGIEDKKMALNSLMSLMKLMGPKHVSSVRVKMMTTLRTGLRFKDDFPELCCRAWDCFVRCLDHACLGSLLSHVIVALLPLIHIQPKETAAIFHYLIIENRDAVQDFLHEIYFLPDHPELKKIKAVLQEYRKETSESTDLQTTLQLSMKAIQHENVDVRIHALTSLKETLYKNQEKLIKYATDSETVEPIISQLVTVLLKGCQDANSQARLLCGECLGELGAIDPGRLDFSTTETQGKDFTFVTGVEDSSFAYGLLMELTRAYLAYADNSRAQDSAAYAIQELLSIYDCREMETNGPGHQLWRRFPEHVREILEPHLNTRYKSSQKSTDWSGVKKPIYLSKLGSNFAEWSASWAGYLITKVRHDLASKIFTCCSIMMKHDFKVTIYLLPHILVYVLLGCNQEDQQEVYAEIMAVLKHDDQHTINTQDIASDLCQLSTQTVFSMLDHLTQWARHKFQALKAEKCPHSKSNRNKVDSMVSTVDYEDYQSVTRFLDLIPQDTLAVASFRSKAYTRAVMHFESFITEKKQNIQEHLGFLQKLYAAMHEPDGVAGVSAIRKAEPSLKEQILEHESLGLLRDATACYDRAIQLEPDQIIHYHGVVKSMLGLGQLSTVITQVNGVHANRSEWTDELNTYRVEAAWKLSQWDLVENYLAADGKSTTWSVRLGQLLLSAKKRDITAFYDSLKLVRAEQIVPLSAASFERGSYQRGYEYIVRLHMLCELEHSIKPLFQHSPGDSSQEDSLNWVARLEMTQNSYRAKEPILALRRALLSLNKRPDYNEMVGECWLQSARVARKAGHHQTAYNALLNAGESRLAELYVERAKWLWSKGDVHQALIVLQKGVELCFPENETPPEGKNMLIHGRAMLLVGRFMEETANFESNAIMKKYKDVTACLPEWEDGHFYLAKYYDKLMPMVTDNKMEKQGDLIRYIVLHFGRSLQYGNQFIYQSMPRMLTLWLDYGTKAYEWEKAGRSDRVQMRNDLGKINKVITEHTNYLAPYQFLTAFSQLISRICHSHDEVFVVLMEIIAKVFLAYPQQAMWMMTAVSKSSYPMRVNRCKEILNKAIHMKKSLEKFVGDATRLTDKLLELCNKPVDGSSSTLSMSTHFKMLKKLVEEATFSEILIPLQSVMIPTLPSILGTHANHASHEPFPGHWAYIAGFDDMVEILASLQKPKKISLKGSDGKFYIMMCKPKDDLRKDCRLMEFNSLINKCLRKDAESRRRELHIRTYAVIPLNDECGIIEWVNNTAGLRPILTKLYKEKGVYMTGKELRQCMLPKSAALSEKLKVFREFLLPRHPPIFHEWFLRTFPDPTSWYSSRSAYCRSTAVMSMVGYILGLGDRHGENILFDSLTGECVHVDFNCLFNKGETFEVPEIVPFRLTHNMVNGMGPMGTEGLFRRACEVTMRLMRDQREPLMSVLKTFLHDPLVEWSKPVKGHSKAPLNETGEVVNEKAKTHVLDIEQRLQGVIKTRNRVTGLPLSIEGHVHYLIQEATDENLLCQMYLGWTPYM
Sequence of full-length human ATR protein (Q8WXE1 other isoform, or with tags, fused parts or gaps partner): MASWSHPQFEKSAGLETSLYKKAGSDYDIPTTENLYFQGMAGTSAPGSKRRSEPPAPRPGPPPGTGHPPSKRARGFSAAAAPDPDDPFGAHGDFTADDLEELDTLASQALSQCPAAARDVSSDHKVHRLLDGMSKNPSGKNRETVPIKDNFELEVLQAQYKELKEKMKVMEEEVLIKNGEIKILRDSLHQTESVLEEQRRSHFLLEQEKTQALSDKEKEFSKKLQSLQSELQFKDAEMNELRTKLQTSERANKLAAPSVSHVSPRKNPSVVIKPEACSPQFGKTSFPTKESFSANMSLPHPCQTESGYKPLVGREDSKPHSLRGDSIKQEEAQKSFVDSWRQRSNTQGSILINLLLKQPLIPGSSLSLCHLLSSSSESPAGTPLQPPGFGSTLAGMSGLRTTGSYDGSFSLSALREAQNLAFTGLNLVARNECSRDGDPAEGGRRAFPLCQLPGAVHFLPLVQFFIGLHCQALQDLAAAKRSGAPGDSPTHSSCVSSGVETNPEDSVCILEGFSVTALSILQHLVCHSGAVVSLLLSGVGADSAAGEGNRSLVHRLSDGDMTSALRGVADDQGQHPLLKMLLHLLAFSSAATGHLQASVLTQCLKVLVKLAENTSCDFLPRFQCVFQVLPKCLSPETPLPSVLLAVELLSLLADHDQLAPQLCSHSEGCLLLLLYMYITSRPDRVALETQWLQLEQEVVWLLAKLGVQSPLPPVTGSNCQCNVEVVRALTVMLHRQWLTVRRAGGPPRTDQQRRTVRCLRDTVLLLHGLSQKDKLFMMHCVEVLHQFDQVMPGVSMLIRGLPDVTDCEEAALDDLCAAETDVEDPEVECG

Question: For `C[C@@H]1COCCN1c1cc(N=S(C)(=O)c2ccccc2O)c2ccnc(-c3ccn[nH]3)c2n1` (stereo partly drawn) [Example 276, 2-(methyl-N-{2-[(3R)-3-methylmorpholin-4-yl]-8-(1H-pyrazol-5-yl)-1,7-naphthyridin-4-yl}sulfonimidoyl)phenol], which IC50 is on record?
Answer: 237 nM

Question: For `C[C@@H]1COCCN1c1cc(N=S(C)(=O)c2ccc(Br)cc2)c2ccnc(-c3ccn[nH]3)c2n1` (some centres unmarked) [Example 277], which IC50 is on record?
Answer: 78.2 nM

Question: Which IC50 does the source give for `C[C@@H]1COCCN1c1cc(N=S(C)(=O)C(C)(C)C)c2ccnc(-c3ccn[nH]3)c2n1` (stereo partly drawn) [Example 278, 4-{[tert-butyl(methyl)oxido-λ^6-sulfanylidene]amino}-2-[(3R)-3-methylmorpholin-4-yl]-8-(1H-pyrazol-5-yl)-1,7-naphthyridine] here?
Answer: 26.9 nM

Question: For `O=S1(=Nc2cc(N3CCOCC3)nc3c(-c4ccn[nH]4)nccc23)CCOCC1` [Example 279, formic acid - N-[2-(morpholin-4-yl)-8-(1H-pyrazol-5-yl)-1,7-naphthyridin-4-yI]-1,4k4-oxathian-4-imine 4-oxide (1:1)], which IC50 is on record?
Answer: 293 nM

Question: `O=S1(=Nc2cc(N3CCOCC3)nc3c(-c4ccn[nH]4)nccc23)CCCCC1` [Example 280, N-[2-(morpholin-4-yl)-8-(1H-pyrazol-5-yl)-1,7-naphthyridin-4-yl]hexahydro-1λ^4-thiopyran-1-imine 1-oxide] was tested. Which IC50 did it give?
Answer: 46.8 nM

Question: With `CC(C)C(C)(O)c1cc(N2CCOC[C@H]2C)nc2c(-c3ccn[nH]3)nccc12` (stereo partly drawn) [Example 281, 3-methyl-2-{2-[(3R)-3-methylmorpholin-4-yl]-8-(1H-pyrazol-5-yl)-1,7-naphthyridin-4-yl}butan-2-ol] as the molecule, how does the IC50 read?
Answer: 13.6 nM

Question: How did the IC50 turn out when `C[C@@H]1COCCN1c1cc(C(C)(O)C2CCOCC2)c2ccnc(-c3ccn[nH]3)c2n1` (stereo partly drawn) [Example 282, 1-{2-[(3R)-3-methylmorpholin-4-yl]-8-(1H-pyrazol-5-yl)-1,7-naphthyridin-4-yl}-1-(tetrahydro-2H-pyran-4-yl)ethanol] was run?
Answer: 12.7 nM

Question: Which IC50 does the source give for `CCCCC(C)(O)c1cc(N2CCOC[C@H]2C)nc2c(-c3ccn[nH]3)nccc12` (stereo partly drawn) [Example 284, 2-{2-[(3R)-3-methylmorpholin-4-yl]-8-(1H-pyrazol-5-yl)-1,7-naphthyridin-4-yl}hexan-2-ol] here?
Answer: 41.6 nM

Question: With `C[C@@H]1COCCN1c1cc(C(N)=O)c2ccnc(-c3cc[nH]n3)c2n1` [Example 285, 2-[(3R)-3-methylmorpholin-4-yl]-8-(1H-pyrazol-3-yl)-1,7-naphthyridine-4-carboxamide] as the molecule, how does the IC50 read?
Answer: 509 nM

Question: With `C[C@@H]1COCCN1c1cc(C2(S(C)(=O)=O)CC2)c2ccnc(-c3ccn[nH]3)c2n1` [Example 286, 2-[(3R)-3-methylmorpholin-4-yl]-4-[1-(methylsulfonyl)cyclopropyl]-8-(1H-pyrazol-5-yl)-1,7-naphthyridine] as the molecule, how does the IC50 read?
Answer: 14.5 nM

Question: For `c1cc(-c2nccc3c(OCC4CCOCC4)cc(N4CCOCC4)nc23)[nH]n1` [Example 287, 2-(morpholin-4-yl)-8-(1H-pyrazol-5-yl)-4-(tetrahydro-2H-pyran-4-ylmethoxy)-1,7-naphthyridine], which IC50 is on record?
Answer: 675 nM

Question: How did the IC50 turn out when `CN(C)C(=O)c1cccc(-c2cc(N3CCOCC3)nc3c(-c4ccn[nH]4)nccc23)c1` [Example 288, N,N-dimethyl-3-[2-(morpholin-4-yl)-8-(1H-pyrazol-5-yl)-1,7-naphthyridin-4-yl]benzamide] was run?
Answer: 345 nM

Question: For `O=C(c1ccc(-c2cc(N3CCOCC3)nc3c(-c4ccn[nH]4)nccc23)cc1)N1CCCCC1` [Example 289, {4-[2-(morpholin-4-yl)-8-(1H-pyrazol-5-yl)-1,7-naphthyridin-4-yl]phenyl}(piperidin-1-yl)methanone], which IC50 is on record?
Answer: 2990 nM

Question: With `CN(C)C(=O)c1ccccc1-c1cc(N2CCOCC2)nc2c(-c3ccn[nH]3)nccc12` [Example 290, N,N-dimethyl-2-[2-(morpholin-4-yl)-8-(1H-pyrazol-5-yl)-1,7-naphthyridin-4-yl]benzamide] as the molecule, how does the IC50 read?
Answer: 1190 nM

Question: How did the IC50 turn out when `O=C(NC1CC1)c1ccc(-c2cc(N3CCOCC3)nc3c(-c4ccn[nH]4)nccc23)cc1` [Example 291, N-cyclopropyl-4-[2-(morpholin-4-yl)-8-(1H-pyrazol-5-yl)-1,7-naphthyridin-4-yl]benzamide] was run?
Answer: 83.7 nM

Question: For `Cc1ccncc1-c1cc(N2CCOCC2)nc2c(-c3ccn[nH]3)nccc12` [Example 292, 4-(4-methylpyridin-3-yl)-2-(morpholin-4-yl)-8-(1H-pyrazol-5-yl)-1,7-naphthyridine], which IC50 is on record?
Answer: 108 nM

Question: Which IC50 does the source give for `c1cc(-c2nccc3c(-c4ccc5cc[nH]c5c4)cc(N4CCOCC4)nc23)[nH]n1` [Example 293, 4-(1H-indo1-6-yl)-2-(morpholin-4-yl)-8-(1H-pyrazol-5-yl)-1,7-naphthyridine] here?
Answer: 328 nM

Question: Which IC50 does the source give for `c1cc(-c2cc(N3CCOCC3)nc3c(-c4ccn[nH]4)nccc23)c2cc[nH]c2c1` [Example 294, 4-(1H-indo1-4-yl)-2-(morpholin-4-yl)-8-(1H-pyrazol-5-yl)-1,7-naphthyridine] here?
Answer: 37.2 nM

Question: With `NC(=O)c1cccc(-c2cc(N3CCOCC3)nc3c(-c4ccn[nH]4)nccc23)c1` [Example 295, 3-[2-(morpholin-4-yl)-8-(1H-pyrazol-5-yl)-1,7-naphthyridin-4-yl]benzamide] as the molecule, how does the IC50 read?
Answer: 113 nM

Question: `NC(=O)c1ccc(-c2cc(N3CCOCC3)nc3c(-c4ccn[nH]4)nccc23)cc1` [Example 296, 4-[2-(morpholin-4-yl)-8-(1H-pyrazol-5-yl)-1,7-naphthyridin-4-yl]benzamide] was tested. Which IC50 did it give?
Answer: 76.8 nM

Question: With `CNC(=O)c1cccc(-c2cc(N3CCOCC3)nc3c(-c4ccn[nH]4)nccc23)c1` [Example 297, N-methyl-3-[2-(morpholin-4-yl)-8-(1H-pyrazol-5-yl)-1,7-naphthyridin-4-yl]benzamide] as the molecule, how does the IC50 read?
Answer: 119 nM

Question: For `Fc1cccc(-c2cc(N3CCOCC3)nc3c(-c4ccn[nH]4)nccc23)c1` [Example 298, 4-(3-fluorophenyl)-2-(morpholin-4-yl)-8-(1H-pyrazol-5-yl)-1,7-naphthyridine], which IC50 is on record?
Answer: 59.2 nM

Question: Which IC50 does the source give for `Clc1ccc(-c2cc(N3CCOCC3)nc3c(-c4ccn[nH]4)nccc23)s1` [Example 299, 4-(5-chlorothiophen-2-yl)-2-(morpholin-4-yl)-8-(1H-pyrazol-5-yl)-1,7-naphthyridine] here?
Answer: 55.2 nM

Question: Which IC50 does the source give for `COc1ccccc1-c1cc(N2CCOCC2)nc2c(-c3ccn[nH]3)nccc12` [Example 300, 4-(2-methoxyphenyl)-2-(morpholin-4-yl)-8-(1H-pyrazol-5-yl)-1,7-naphthyridine] here?
Answer: 181 nM

Question: For `FC(F)(F)c1ccccc1-c1cc(N2CCOCC2)nc2c(-c3ccn[nH]3)nccc12` [Example 301, 2-(morpholin-4-yl)-8-(1H-pyrazol-5-yl)-4-[2-(trifluoromethyl)phenyl]-1,7-naphthyridine], which IC50 is on record?
Answer: 21.6 nM

Question: Which IC50 does the source give for `FC(F)(F)c1ccc(-c2cc(N3CCOCC3)nc3c(-c4ccn[nH]4)nccc23)cc1` [Example 302, 2-(morpholin-4-yl)-8-(1H-pyrazol-5-yl)-4-[4-(trifluoromethyl)phenyl]-1,7-naphthyridine] here?
Answer: 188 nM

Question: `FC(F)(F)c1cccc(-c2cc(N3CCOCC3)nc3c(-c4ccn[nH]4)nccc23)c1` [Example 303, 2-(morpholin-4-yl)-8-(1H-pyrazol-5-yl)-4-[3-(trifluoromethyl)phenyl]-1,7-naphthyridine] was tested. Which IC50 did it give?
Answer: 86.1 nM

Question: `Clc1cccc(-c2cc(N3CCOCC3)nc3c(-c4ccn[nH]4)nccc23)c1` [Example 304, 4-(3-chlorophenyl)-2-(morpholin-4-yl)-8-(1H-pyrazol-5-yl)-1,7-naphthyridine] was tested. Which IC50 did it give?
Answer: 57.2 nM

same assay, conditions: tracer B, TR-FRET; read-out: ATR binding (tracer B) IC50

Question: How did the IC50 turn out when `c1cc(-c2nccc3c(OCC4CCOCC4)cc(N4CCOCC4)nc23)[nH]n1` [Example 287, 2-(morpholin-4-yl)-8-(1H-pyrazol-5-yl)-4-(tetrahydro-2H-pyran-4-ylmethoxy)-1,7-naphthyridine] was run?
Answer: 461 nM
